Measurements as given in paper PMC10094510, “Novel Cannabinoid Receptor 2 (CB2) Low Lipophilicity Agonists Produce Distinct cAMP and Arrestin Signalling Kinetics without Bias” (International Journal of Molecular Sciences, 2023).
Like-named read-outs stand apart in the source and are kept apart here.

What was measured:
[1] = biological target: T1, human CB2 (Homo sapiens, UniProt P34972, Q63R); test: Real-time BRET β-arrestin-2 plasma membrane translocation, HEK-293S cells transfected with human CB2; assay type: cell-based; conditions: for β-arrestin-2 translocation ΔEmax (% increase above V): normalised to vehicle 100%
T1 construct: HA (N); 3TCS (N); expressed in transfected cells; host or cells: HEK-293S cells, transient transfection (PEI max)
T1 sequence (P34972 whole entry Q63R): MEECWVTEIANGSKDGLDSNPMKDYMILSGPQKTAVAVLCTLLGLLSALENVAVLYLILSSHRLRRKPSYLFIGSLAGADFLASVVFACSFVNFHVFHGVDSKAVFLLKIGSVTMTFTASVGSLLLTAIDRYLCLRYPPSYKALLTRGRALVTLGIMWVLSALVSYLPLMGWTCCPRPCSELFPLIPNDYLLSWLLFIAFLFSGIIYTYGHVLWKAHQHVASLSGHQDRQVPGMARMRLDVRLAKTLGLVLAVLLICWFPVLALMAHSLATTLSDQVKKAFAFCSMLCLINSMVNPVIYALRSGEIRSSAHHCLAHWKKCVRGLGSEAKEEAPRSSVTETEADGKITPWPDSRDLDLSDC
Method: (§1) HEK-293S cells (HEK-S; generously provided by Professor David Poyner, Aston Research Centre, RRID:CVCL_A784 [48]) were maintained in T75 flasks (Corning-Costar) with Dulbecco’s Modified Eagle’s Medium high glucose with phenol red, L-glutamine and sodium pyruvate (DMEM; Cytiva SH30243), and 8% foetal bovine serum (FBS; NZ-origin, Moregate Biotech) at 37 °C in a humidified atmosphere containing 5% CO2.
(§2) Poly-D-Lysine (PDL) (Sigma-Aldrich) at 0.05 mg/mL in PBS was incubated in wells of 96-well Solid White Flat Bottom Polystyrene TC-treated Microplate (Corning-Costar) at 37 °C for 1 h, then washed with PBS prior to seeding and transfection. Cells were seeded at 45,000 cells/well in DMEM supplemented with 12% FBS.
(§3) Plasmids encoding human CB2 (HA-3TCS-hCB2 63R pcDNA5/FRT; 28.5 ng per well) or no receptor (pcDNA5/FRT/CAT; 23.5 ng per well; Thermo Fisher Scientific, Waltham, MA, USA), and either His-CAMYEL (in pcDNA3L; 24 ng per well; ATCC MBA-277; previously described in [49]), or a mix of Rluc8-hβ-arrestin2-Sp1 (in pcDNA3; 0.5 ng per well; previously described in [19]) and Mem-linker-Citrine-SH3 (in pcDNA3; 20 ng per well; previously described in [19, 50]) were diluted in DMEM. Diluted DNA was then co-incubated with polyethyleneimine max (PEI max; Polysciences, Warrington, PA, USA) (Total DNA:PEI ratio of 1:7.5 or 1:6.7 for cAMP or β-arrestin-2 experiments, respectively) in DMEM for 1 h at room temperature (~19–21 °C). These transfection mixes were then added to plated cells, resulting in a final concentration of 8% FBS. Plates were incubated for ~48 h before assaying.
(§4) The protocol for measuring levels of cellular cAMP via real-time BRET biosensor (CAMYEL) is adapted from previous publications. In all cAMP experiments, forskolin (Tocris Bioscience, Bristol, UK) was used to stimulate the activation of adenylyl cyclase to raise intracellular cAMP levels. Vehicle (DMSO) was maintained at an equivalent concentration across all conditions. Assays were carried out in technical duplicate. Then, ~48 h post-transfection, plating media was aspirated, and wells were washed with H+B, consisting of HBSS (Life Technologies) and 1 mg/mL BSA (ICPbio). H+B was then added to the wells to initiate a 30 min serum starve at 37 °C. Post-serum starve, coelenterazine h (final concentration 5 μM, NanoLight Technologies, Norman, OK, USA, #301) was added to the wells, and a 5 min pre-reading was conducted using the LUMIstar® Omega luminometer (Rluc and YFP emissions detected at 460 nm and 535 nm, respectively; BMG Labtech, Ortenberg, Germany). Next, forskolin (final concentration 5 μM) was added to all wells (except vehicle-only wells which received DMSO), and plate reading resumed for 5 min. Lastly, CB2 compounds of interest with forskolin, vehicle with forskolin, or vehicle without forskolin, were added to their respective wells, and a final 20 min read was conducted. All compounds and reagents were diluted in H+B prior to addition to the plate. For β-arrestin-2 recruitment assays, an equivalent procedure was followed except no forskolin was included in the assay stimulations.
(§5) BRET ratios were calculated by dividing YFP emissions by Rluc emissions, then for the cAMP assay, normalised to the mean of baseline ratio reads (where only coelenterazine h was present) to eliminate any variability present prior to drug addiction. An increase in BRET ratio indicated a decrease in cAMP levels or increase in β-arrestin-2 recruitment. Lowess smoothing (GraphPad Prism) was applied to individual technical replicates within an assay. Concentration response curves for the mean of technical replicates (CRC; “log(agonist) vs. response (three parameters)” nonlinear regression curve model, Hill slope constrained to 1) were drawn for the mean ratios over 20 min stimulation or individual time-points.

[2] = biological target: T1, human CB2; test: Real-time BRET CAMYEL cAMP biosensor, forskolin-stimulated HEK-293S cells transfected with human CB2; assay type: cell-based; conditions: for 2.5 min EC75 concentration (log[compound] M): cAMP assay, calculated from mean EC50 at 2.5 min, Figure S1; for time of peak cAMP response (maximal efficacy): during 20 min stimulation; for cAMP ΔEmax (absolute magnitude percentage decrease from 100%): normalised to V 0% and F 100%
Method: as §1, §2, §3, §4, §5

[3] = biological target: T2, human CB1 (Homo sapiens, UniProt P21554); test: Competition radioligand binding assay ([3H]-CP55,940), hCB1 membranes
T2 construct: pplss (N); 3HA (N); expressed in transfected cells
T2 sequence (P21554 whole entry): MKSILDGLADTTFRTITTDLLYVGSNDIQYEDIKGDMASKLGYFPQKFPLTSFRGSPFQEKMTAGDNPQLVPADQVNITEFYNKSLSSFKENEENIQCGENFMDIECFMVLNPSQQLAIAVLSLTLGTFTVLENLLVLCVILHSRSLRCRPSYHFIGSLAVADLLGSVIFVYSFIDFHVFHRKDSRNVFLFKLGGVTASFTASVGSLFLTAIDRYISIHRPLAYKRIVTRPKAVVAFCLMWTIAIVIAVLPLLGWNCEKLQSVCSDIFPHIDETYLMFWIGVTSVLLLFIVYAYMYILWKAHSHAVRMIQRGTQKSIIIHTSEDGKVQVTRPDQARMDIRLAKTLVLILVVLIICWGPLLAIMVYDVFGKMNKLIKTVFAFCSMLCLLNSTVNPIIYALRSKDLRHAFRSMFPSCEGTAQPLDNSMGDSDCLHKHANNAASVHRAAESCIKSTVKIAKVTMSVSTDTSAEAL
Method: Preparation of hCB1- and hCB2-membranes from a HEK pplss-3HA-hCB1 cell line and HEK Flp-in HA-3TCS-hCB2 63R cell line, respectively, followed the protocol described previously. […] The concentration of DMSO was kept equivalent across all test conditions. All dilutions were dispensed into a 96-well, polypropylene V-bottom plate (Gene Era Biotech, Hangzhou, China). […] All conditions were carried out in technical duplicate. The plate was then sealed, tap-mixed, then incubated at 30 °C for 1 h. A total of 50 µL of 0.1% PEI (Sigma-Aldrich, St. Louis, MI, USA) in MQ water was added to each well of a 96-well GF/C harvest plate (Perkin Elmer) 1 h prior to the harvest. When the incubation finished, vacuum (~5 mmHg) was applied to the harvest plate and wells were washed (50 mM HEPES pH 7.4, 500 mM NaCl, 1 mg/mL BSA, MQ water, ice cold). Subsequently, the contents of the V-bottom plate were transferred to corresponding wells in the harvest plate, wash buffer was used to wash the remaining contents of the V-bottom wells before transferring this to the harvest plate, then the harvest plate was washed an additional three times. The plate was dried for ~24 h at 24 °C. To prepare for reading, the bottom of the plate was sealed, each well received 50 µL of Irgasafe Plus scintillation fluid (Perkin Elmer), followed by sealing the top of the plate. Plates were read in a Wallac MicroBeta® TriLux Liquid Scintillation Counter (Perkin Elmer) with a read time of 2 min/well.
(§6) GraphPad Prism (v8.0.2; GraphPad Software, San Diego, CA, USA) was used to fit nonlinear regression curves (One site—Fit Ki) to the corrected counts per minutes (CCPM) of each displacer to determine their pKi (negative log Ki). […] Mean and SEM of pKi values were calculated from independent experiments. […] CB2 selectivity was calculated as […].

[4] = biological target: T1, human CB2; test: Competition radioligand binding assay ([3H]-CP55,940), hCB2 membranes; conditions: for CB2/CB1 Selectivity: CB2 selectivity relative to CB1, from Ki (or Kd); for displacement of [3H]-CP55,940 from CB2: full displacement = ≥ 75% relative to 1 µM CP55,940
Method: The concentration of DMSO was kept equivalent across all test conditions. All dilutions were dispensed into a 96-well, polypropylene V-bottom plate (Gene Era Biotech, Hangzhou, China). […] All conditions were carried out in technical duplicate. The plate was then sealed, tap-mixed, then incubated at 30 °C for 1 h. A total of 50 µL of 0.1% PEI (Sigma-Aldrich, St. Louis, MI, USA) in MQ water was added to each well of a 96-well GF/C harvest plate (Perkin Elmer) 1 h prior to the harvest. When the incubation finished, vacuum (~5 mmHg) was applied to the harvest plate and wells were washed (50 mM HEPES pH 7.4, 500 mM NaCl, 1 mg/mL BSA, MQ water, ice cold). Subsequently, the contents of the V-bottom plate were transferred to corresponding wells in the harvest plate, wash buffer was used to wash the remaining contents of the V-bottom wells before transferring this to the harvest plate, then the harvest plate was washed an additional three times. The plate was dried for ~24 h at 24 °C. To prepare for reading, the bottom of the plate was sealed, each well received 50 µL of Irgasafe Plus scintillation fluid (Perkin Elmer), followed by sealing the top of the plate. Plates were read in a Wallac MicroBeta® TriLux Liquid Scintillation Counter (Perkin Elmer) with a read time of 2 min/well.
as §6

[5] = tested on: rodents; parameters: method as in PMID 22444677, PMID 25721168; conditions: cited from earlier work
[6] = tested on: CB2; parameters: method as in PMID 22444677; conditions: error not shown; cited from earlier work
[7] = parameters: method as in PMID 22444677, PMID 25721168; conditions: cited from earlier work
[8] = tested on: atopic dermatitis; parameters: method as in PMID 22444677, PMID 25721168; conditions: informally reported; cited from earlier work
[9] = biological target: CB2; parameters: method as in PMID 22444677; conditions: error not shown; cited from earlier work; remark: listed apart in the source
[10] = tested on: CB2; parameters: method as in PMID 31024316; conditions: cited from earlier work
[11] = mean over 20 min stimulation, 5 μM forskolin

Row | SMILES | β-arrestin-2 translocation ΔEmax (% increase above V) ([1]; mean over 20 min stimulation) | 2.5 min EC75 concentration (log[compound] M) [2] [log M] | time of peak cAMP response (maximal efficacy) ([2]; 5 μM forskolin) | cAMP ΔEmax (absolute magnitude percentage decrease from 100%) [2, 11] | Ki [3] [nM] | EC50 [1] [nM] | EC50 [2] [nM] | decrease in cAMP pEC50 in comparison with CP55,940 ([2]; mean over 20 min stimulation) | Ki [4] [nM] | CB2/CB1 Selectivity [4] | displacement of [3H]-CP55,940 from CB2 [4] | also measured
1 | CCCCCCC(C)(C)c1ccc([C@@H]2C[C@H](O)CC[C@H]2CCCO)c(O)c1 [CP55,940, reference compound] | 17.6% ± 0.8% | -7.3 | ≤ 2.5 min | 35.1% ± 3.5% |  |  |  |  |  |  |  | time to plateau of β-arrestin-2 efficacy ([1]; 20 min stimulation): approximately 5 min; overall increase of β-arrestin-2 response potency during the stimulation ([1]; 20 min stimulation, vs 1.5 min): ~ 0.7 log units; increase of cAMP response potency during the acute 5 min period ([2]; not significant vs 2.5 min): ~ 0.5 log units
2 | O=C(N[C@H]1CC[C@@H](O)CC1)c1cc2cccnc2n(CCN2CCOCC2)c1=O [UOMM18] | 7.3 ± 0.6% | -7.1 | 2.5 min | 28.0 ± 2.4% | > 100000 | 126 | 63.1 | ~ 0.8 log units | 724 | >126 |  | displacement of [3H]-CP55,940 at CB1 ([3]; highest applied concentration 31.6 µM): did not detectably displace; agonist type for β-arrestin-2 translocation ([1]; relative to CP55,940): partial agonist; CB2 affinity lower than pKd of CP55,940 ([4]; p < 0.0001): ~ 2.5 log units
3 | CCc1c(C)cc(C(=O)NC2(C(=O)NCCOCCOCCO)CCCCC2)c(=O)n1Cc1ccc(F)cc1 [UOSS75] | 8.5 ± 0.7% | -7.6 | 2.5 min | 31.4 ± 3.9% | ~15100 | 100 | 10 |  | 148 | ~100 | fully displaced | 
4 | CCc1c(C)cc(C(=O)NC2(C(=O)NCCOCCOCCOCCO)CCCCC2)c(=O)n1Cc1ccc(F)cc1 [UOSS76] | 7.9 ± 1.2% | -6.9 | around 4.5 min | 26.1 ± 3.6% | ~29500 | 631 | 100 | ~ 1.0 log units | 813 | ~40 | fully displaced | smaller β-arrestin-2 pEC50 than CP55,940 ([1]; mean over 20 min stimulation): ~ 1.0 log units; weaker β-arrestin-2 potency than UOSS77 ([1]; mean over 20 min stimulation): ~ 0.7 log units; decrease of cAMP response potency during the early phase of stimulation ([2]; not significant vs 4.5 min): ~ 0.7 log units; reduction of CB2 pKi vs. UOSS77 ([4]; p = 0.015): 0.6 log units
5 | CCc1c(C)cc(C(=O)NC2(C(=O)O)CCCCC2)c(=O)n1Cc1ccc(F)cc1 [UOSS77, reference compound] | 11.1 ± 0.7% | -7.6 | 2.5 min | 33.8 ± 5.5% |  |  |  |  |  | ~80 | fully displaced | Ki ([3]; 0.75 nM [3H]-CP55,940, estimates, incomplete displacement at maximum concentration, read-out: CB1 pKi (±SEM) (converted)): ~15800 nM; EC50 ([1]; mean over 20 min stimulation, mean ± SEM, read-out: β-arrestin-2 translocation pEC50 (converted)): 126 nM; anti-pruritic activity in rodents [5]: shown promise as an anti-pruritic agent; agonism pEC50 (cAMP) [6]: 7.6; oral bioavailability [7]: orally bioavailable; EC50 ([2]; mean over 20 min stimulation, 5 μM forskolin, mean ± SEM, read-out: cAMP pEC50 (converted)): 12.6 nM; efficacy in Phase 2 clinical trial for atopic dermatitis [8]: ineffective; CB2 pKi [9]: 7.4; Ki ([4]; 0.75 nM [3H]-CP55,940, mean (SEM), read-out: CB2 pKi (±SEM) (converted)): 186 nM
6 | Cc1c(C(=O)c2cccc3ccccc23)c2cccc3c2n1[C@H](CN1CCOCC1)CO3 [WIN55,212-2] |  |  |  |  |  |  |  |  |  |  |  | agonist type for β-arrestin-2 recruitment to CB2 in comparison with CP55,940 [10]: weak partial agonist
